According to patent US12195551B2, “Combination of an ErbB-2/ErbB-3 bispecific antibody with endocrine therapy for breast cancer” (Merus N.V., priority 2017, dated 2025):
Where “and” joins values, the source holds several entries; their conditions need not be identical. Equal entries are not always repeated. Where two headings read alike, the source gives them in different places.

How the values were obtained:
[1] = tested on: HBCx-34 tumors; assay: In vivo growth characteristics of the HBCx-34 PDX model (FIG. 4); set-up: species or system mouse; details: animals that did not receive estrogens, vs vehicle
Protocol: FIG. 4. In vivo growth characteristics of the HBCx-34 PDX model. A, IHC characteristics of HBCx-34 PDX tumors. B, Athymic nude mice were engrafted s.c. with HBCx-34 tumors. […] T-tests were performed to compare tumor volumes from estrogen-independent tumors treated with vehicle or Letrozole (*, p<0.05, **, p<0.01, ***, p<0.001).

[2] = tested on: human HBCx-34 breast tumor xenograft; assay: Antitumor efficacy in HBCx-34 patient-derived breast cancer xenograft (study XTS-1521); type: in vivo, mouse
Protocol: Antitumor efficacy of an HER2/HER3 targeting antibody was determined in the context of a combination treatment together with an aromatase inhibitor. […] It was used as single agent and in combination with the aromatase inhibitor Letrozole. The hormone-dependent HBCx-34 patient-derived breast cancer xenograft model established in immunodeficient mice was used as an example of a breast cancer.
The HBCx-34 PDX model was derived from a treatment-naïve primary breast infiltrating ductal carcinoma.
Tumor-bearing mice received estrogen diluted in drinking water (β-oestradiol, 8.5 mg/l), from the date of tumor implant to the date of inclusion. During the treatment period, mice were not supplemented with estrogen.
Tumors of the same passage were transplanted subcutaneously onto 6-24 mice (donor mice, passage (n−1)). When these tumors reached 1000 to 2000 mm^3, donor mice were sacrificed by cervical dislocation, tumors were aseptically excised and dissected. After removing necrotic areas, tumors were cut into fragments measuring approximately 20 mm^3 and transferred in culture medium before grafting.
95 mice were anaesthetized with 100 mg/kg ketamine hydrochloride (batch 5D92, Exp: 2017/03, Virbac) and 10 mg/kg xylazine (batch KP0AX9X, Exp: 2017/08, Bayer), and then skin was aseptized with a chlorhexidine solution, incised at the level of the interscapular region, and a 20 mm^3 tumor fragment was placed in the subcutaneous tissue. Skin was closed with clips. All mice from the same experiment were implanted on the same day.
Treatments were randomly attributed to boxes housing up to 5 mice and were initiated 36 days post implantation of the tumor (42% inclusion rate). The study was terminated following 57 days after the start of treatment.
Tumor volume was evaluated by measuring tumor diameters, with a calliper, biweekly during the experimental period.
The formula TV (mm3)=[length (mm)×width (mm)2]/2 was used, where the length and the width are the longest and the shortest diameters of the tumor, respectively.
A total of 4 groups were used as summarized in the scheme below. Each group initially included 10 mice.
All treatment doses were body weight adjusted at each injection.

[3] = tested on: HBCx-34 PDX model; details: model characterisation; cited from earlier work
[4] = MCLA-128 25 mg/kg IP, Letrozole […] PO qdx57
[5] = MCLA-128 25 mg/kg i.p., Letrozole […] p.o. qdx57, day of maximum as in text

In the case of N#Cc1ccc(C(c2ccc(C#N)cc2)n2cncn2)cc1 [Letrozole], the “formation of estrogen-independent tumors” value [1] is reported as “significantly reduced the formation of estrogen-independent tumors”, the “Mann-Whitney test on tumor volume” value ([2]; DAY 25, vs vehicle group) is reported as “* (* = P < 0.05)” and the “Mann-Whitney test on tumor volume” value ([2]; DAY 28, vs vehicle group) is reported as “* (* = P < 0.05)”. The “Dunn's Multiple Comparison Test on tumor volume” value ([2]; DAY 32, vs MCLA-128 25) was “* (* = P < 0.05)”, the “Mann-Whitney test on tumor volume” value ([2]; DAY 32, vs vehicle group) was “** (** = P < 0.01)” and the “Dunn's Multiple Comparison Test on tumor volume” value ([2]; DAY 35, vs MCLA-128 25) was “** (** = P < 0.01)”. The “Dunn's Multiple Comparison Test on tumor volume” value ([2]; DAY 35, vs Vehicle MCLA-128) was “* (* = P < 0.05)”, the “Mann-Whitney test on tumor volume” value ([2]; DAY 35, vs vehicle group) was “*** (*** = P < 0.001)” and the “Dunn's Multiple Comparison Test on tumor volume” value ([2]; DAY 39, vs MCLA-128 25) was “** (** = P < 0.01)”. The “Dunn's Multiple Comparison Test on tumor volume” value ([2]; DAY 39, vs Vehicle MCLA-128) was “* (* = P < 0.05)”, the “Mann-Whitney test on tumor volume” value ([2]; DAY 39, vs vehicle group) was “*** (*** = P < 0.001)” and the “Dunn's Multiple Comparison Test on tumor volume” value ([2]; DAY 42, vs MCLA-128 25) was “** (** = P < 0.01)”. For the same compound, the “Dunn's Multiple Comparison Test on tumor volume” value ([2]; DAY 42, vs Vehicle MCLA-128) was “* (* = P < 0.05)”, the “Mann-Whitney test on tumor volume” value ([2]; DAY 42, vs vehicle group) was “*** (*** = P < 0.001)” and the “Dunn's Multiple Comparison Test on tumor volume” value ([2]; DAY 46, vs MCLA-128 25) was “** (** = P < 0.01)”. The “Dunn's Multiple Comparison Test on tumor volume” value ([2]; DAY 46, vs Vehicle MCLA-128) was “* (* = P < 0.05)”, the “Mann-Whitney test on tumor volume” value ([2]; DAY 46, vs vehicle group) was “*** (*** = P < 0.001)” and the “Dunn's Multiple Comparison Test on tumor volume” value ([2]; DAY 49, vs MCLA-128 25) was “** (** = P < 0.01)”. For the same compound, the “Dunn's Multiple Comparison Test on tumor volume” value ([2]; DAY 49, vs Vehicle MCLA-128) was “* (* = P < 0.05)”, the “Mann-Whitney test on tumor volume” value ([2]; DAY 49, vs vehicle group) was “*** (*** = P < 0.001)” and the “Dunn's Multiple Comparison Test on tumor volume” value ([2]; DAY 53, vs MCLA-128 25) was “** (** = P < 0.01)”. For the same compound, the “Dunn's Multiple Comparison Test on tumor volume” value ([2]; DAY 53, vs Vehicle MCLA-128) was “* (* = P < 0.05)”, the “Mann-Whitney test on tumor volume” value ([2]; DAY 53, vs vehicle group) was “*** (*** = P < 0.001)” and the “Dunn's Multiple Comparison Test on tumor volume” value ([2]; DAY 56, vs MCLA-128 25) was “** (** = P < 0.01)”. For the same compound, the “Dunn's Multiple Comparison Test on tumor volume” value ([2]; DAY 56, vs Vehicle MCLA-128) was “* (* = P < 0.05)”, the “Mann-Whitney test on tumor volume” value ([2]; DAY 56, vs vehicle group) was “*** (*** = P < 0.001)” and the “Best T/C %” value [2, 4] was 18.68%. For the same compound, the “Best TGE %” value [2, 4] was 145.70%, the “T/C % (at control group day end)” value [2, 4] was 18.68% and the “TGI % (at control group day end)” value [2, 4] was 121.97%. For the same compound, the “median TGD × 3 (In days)” value [2, 4] was greater than 56 days, the “tumor growth inhibition (in words)” value ([2]; MCLA-128 25 mg/kg i.p., Letrozole […] p.o. qdx57) was “statistically significant tumor growth inhibition” and the “Mann-Whitney test on tumor volume: STAT” value ([2]; STAT column, vs vehicle group) was “*** (*** = P < 0.001)”. For the same compound, the “TFS (Tumor Free Survivor)” value ([2]; number of complete regressions recorded up to Group Day End) was 1, the “CR (complete regression)” value ([2]; number of mice with 0 to 14 mm^3 tumor size during at least 3 consecutive measurements) was 1/10 and 1 and the “TS (Tumor Stabilization)” value ([2]; number of mice with constant tumor size during at least 6 consecutive measurements) was 1. The “PR (partial regression)” value ([2]; number of mice with tumor size lower than initial during at least 6 consecutive measurements) was 7/10 and 7, the “p compared to the group control by Dunn's test” value ([2]; tumor growth inhibition) was less than 0.05 and the “p compared with the vehicle group, Mann Whitney test” value ([2]; tumor growth inhibition) was less than 0.001. For the same compound, the “Dunn's Multiple Comparison Test on relative body weight” value (DAY 25, vs MCLA-128 25) was “* (* = P < 0.05)”, the “Dunn's Multiple Comparison Test on relative body weight” value (DAY 28, vs Vehicle MCLA-128) was “* (* = P < 0.05)” and the “Dunn's Multiple Comparison Test on relative body weight” value (DAY 32, vs MCLA-128 25) was “** (** = P < 0.01)”. The “Dunn's Multiple Comparison Test on relative body weight” value (DAY 32, vs Vehicle MCLA-128) was “** (** = P < 0.01)”, the “Dunn's Multiple Comparison Test on relative body weight” value (DAY 35, vs MCLA-128 25) was “* (* = P < 0.05)” and the “Dunn's Multiple Comparison Test on relative body weight” value (DAY 35, vs Vehicle MCLA-128) was “** (** = P < 0.01)”. The “Dunn's Multiple Comparison Test on relative body weight” value (DAY 39, vs MCLA-128 25) was “** (** = P < 0.01)”, the “Dunn's Multiple Comparison Test on relative body weight” value (DAY 39, vs Vehicle MCLA-128) was “** (** = P < 0.01)” and the “Dunn's Multiple Comparison Test on relative body weight” value (DAY 42, vs Vehicle MCLA-128) was “** (** = P < 0.01)”. For the same compound, the “Dunn's Multiple Comparison Test on relative body weight” value (DAY 46, vs MCLA-128 25) was “** (** = P < 0.01)”, the “Dunn's Multiple Comparison Test on relative body weight” value (DAY 46, vs Vehicle MCLA-128) was “** (** = P < 0.01)” and the “Dunn's Multiple Comparison Test on relative body weight” value (DAY 49, vs MCLA-128 25) was “** (** = P < 0.01)”. For the same compound, the “Dunn's Multiple Comparison Test on relative body weight” value (DAY 49, vs Vehicle MCLA-128) was “** (** = P < 0.01)”, the “Dunn's Multiple Comparison Test on relative body weight” value (DAY 53, vs MCLA-128 25) was “** (** = P < 0.01)” and the “Dunn's Multiple Comparison Test on relative body weight” value (DAY 53, vs Vehicle MCLA-128) was “** (** = P < 0.01)”. The “Dunn's Multiple Comparison Test on relative body weight” value (DAY 56, vs MCLA-128 25) was “** (** = P < 0.01)”, the “Dunn's Multiple Comparison Test on relative body weight” value (DAY 56, vs Vehicle MCLA-128) was “** (** = P < 0.01)” and the “maximum individual body weight loss” value [5] was 4.1%. The “maximum mean body weight loss” value [5] was “no mean body weight loss” and the “response of the HBCx-34 PDX model” value [3] was “low responder”.
